From ChEMBL document CHEMBL1201862, “PubChem BioAssay data set” (2004)
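All cell lines were grown in 96-well plates and treated with compound for 48 hours. Here, GI50 denotes the concentration required for 50% inhibition of growth.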 Calls of active or inactive are those of the source. Rule as the data show it: active = GI50 up to about 1.1 µM and inactive = higher.

Experiments:
Test in all cases: NCI tumour cell line growth inhibition, 48 h
SNB-75 = test system: SNB-75
M14 = test system: M14
A549 = test system: A549
U-251 = test system: U-251
SW-620 = test system: SW-620
HL-60 = test system: HL-60
K562 = test system: K562
CCRF-CEM = test system: CCRF-CEM
LOX IMVI = test system: LOX IMVI
SF-295 = test system: SF-295
M19-MEL = test system: M19-MEL
LXFL 529 = test system: LXFL 529
HOP-62 = test system: HOP-62
DMS-273 = test system: DMS-273
ACHN = test system: ACHN
HT-29 = test system: HT-29
SN12C = test system: SN12C
KM12 = test system: KM12
MOLT-4 = test system: MOLT-4
SNB-19 = test system: SNB-19
SF-539 = test system: SF-539
XF498 = test system: XF498
A498 = test system: A498
COLO 205 = test system: COLO 205
UACC-257 = test system: UACC-257
OVCAR-3 = test system: OVCAR-3
SNB-78 = test system: SNB-78
SF-268 = test system: SF-268
RXF 393 = test system: RXF 393
SK-MEL-5 = test system: SK-MEL-5
NCI-H226 = test system: NCI-H226
IGROV-1 = test system: IGROV-1
DLD-1 = test system: DLD-1
SR = test system: SR
UO-31 = test system: UO-31
NCI-H522 = test system: NCI-H522
NCI-H460 = test system: NCI-H460
Malme-3M = test system: Malme-3M
OVCAR-4 = test system: OVCAR-4
NCI-H23 = test system: NCI-H23
EKVX = test system: EKVX
TK-10 = test system: TK-10
KM-20L2 = test system: KM-20L2
OVCAR-5 = test system: OVCAR-5
UACC-62 = test system: UACC-62
SK-OV-3 = test system: SK-OV-3
HCT-116 = test system: HCT-116
SK-MEL-2 = test system: SK-MEL-2
SK-MEL-28 = test system: SK-MEL-28
HCC 2998 = test system: HCC 2998
CAKI-1 = test system: CAKI-1
786-0 = test system: 786-0
OVCAR-8 = test system: OVCAR-8

Measured: GI50

N=C(CC(=O)Nc1ccc(Cl)cc1)Nc1ccccc1
inactive: SNB-75 > 100 µM | M14 > 100 µM | A549 > 100 µM | U-251 > 100 µM | SW-620 > 100 µM | HL-60 > 100 µM | K562 > 100 µM | CCRF-CEM > 10 µM | LOX IMVI > 100 µM | SF-295 > 100 µM | M19-MEL > 100 µM | LXFL 529 > 100 µM | HOP-62 > 100 µM | DMS-273 > 100 µM | ACHN > 100 µM | HT-29 > 100 µM | SN12C > 100 µM | KM12 > 100 µM | MOLT-4 > 100 µM | SNB-19 > 100 µM | SF-539 > 100 µM | XF498 > 100 µM | A498 > 100 µM | COLO 205 > 100 µM | UACC-257 > 100 µM | OVCAR-3 > 100 µM | SNB-78 > 100 µM | SF-268 > 100 µM | RXF 393 > 100 µM | SK-MEL-5 > 100 µM | NCI-H226 > 100 µM | IGROV-1 > 100 µM | DLD-1 > 100 µM | SR > 100 µM | UO-31 > 100 µM | NCI-H522 > 100 µM | NCI-H460 > 100 µM | Malme-3M > 100 µM | OVCAR-4 > 100 µM | NCI-H23 > 100 µM | EKVX > 100 µM | TK-10 > 100 µM | KM-20L2 > 100 µM | OVCAR-5 > 100 µM | UACC-62 > 100 µM | SK-OV-3 > 100 µM | HCT-116 > 100 µM | SK-MEL-2 > 100 µM | SK-MEL-28 > 100 µM | HCC 2998 > 100 µM | CAKI-1 > 100 µM | 786-0 > 100 µM | OVCAR-8 > 100 µM
